This passage reports overt toxicity results from patent publication US9029403B2, “Treatment of ovarian cancer with benzylidenebenzohydrazides” (Memorial Sloan-Kettering Cancer Center, priority 2011, dated 2015).

The subject of this data set is NSG mice. In words: In vivo toxicity in NSG mice. To be noted: intraperitoneal, 1, 2.5, 5, 10, 20 or 40 mg/kg, once or three times a week for 4 weeks. The method, then:
The compound designated example 10 above was tested in vivo for toxicity in NSG mice. As used herein, NSG and NSG mice mean the NOD scid gamma (NSG) mice, or an equivalent, available from The Jackson Laboratory and which are the NOD.Cg-Prkdc^scid I12rg^tm1Wj1/SzJ JAX® Mice strain. The NSG mice were injected intraperitoneally with 1, 2.5, 5, 10, 20 or 40 mg/kg of the compound designated example 10 above for once or three times a week for 4 weeks.

As for `Cc1ccc(C(=O)N/N=C/c2c(O)ccc3ccccc23)cn1` [example 10], the overt toxicity result is listed as “no overt toxicity”.
